The text below walks through data of patent publication US10676438B2, “KCNQ2-5 channel activator” (Ono Pharmaceutical Co., Ltd., priority 2014, dated 2020).

Data set [1] is described as follows: Evaluation of stability in human liver microsome. The format is in vitro ADME. The settings on record: human, 15 min, 5 μmol/L, pH 7.4. Here is the method: A test compound (10 mmol/L DMSO solution, 5 μL) was diluted with 50% acetonitrile aqueous solution (195 μL) to prepare 0.25 mmol/L solution.
To a reactor vessel which had been warmed to 37° C. in advance, 0.5 mg/mL of human liver microsome (Xenotech) and 245 μL of 0.1 M phosphate buffer solution (pH 7.4) including NADPH-Co-factor (BD Biosciences) were added, followed by preincubation for five minutes. Then, the above-mentioned test compound solution (5 μL) was added so as to start reaction (final concentration: 5 μmol/L). Immediately after the start, 20 μL was harvested and added to 180 μL of acetonitrile including an internal standard substance (warfarin) to stop the reaction. This solution (20 μL) was stirred with 180 μL of 50% acetonitrile aqueous solution on a plate equipped with a deproteinization filter. Then, the resulting mixture solution was subjected to suction filtration. The filtrate was adopted as a standard sample.
The above-mentioned reaction solution was incubated at 37° C. for 15 minutes, and 20 μL of the solution was added to 180 μL of cooled acetonitrile (including warfarin that is an internal standard substance) to stop the reaction. This solution (20 μL) was stirred with 180 μL of 50% acetonitrile aqueous solution on a plate equipped with a deproteinization filter, and then the resulting mixture solution was subjected to suction filtration. The filtrate was adopted as a reaction sample.
Residual rate (%) was obtained as follows: 1 μL of the sample solution was infused into LC-MS/MS (Discovery Max manufactured by Thermo Scientific), and a quotient obtained by dividing a peak area ratio of the reaction sample (peak area of test compound/peak area of internal standard substance) was divided by the peak area ratio of the standard sample was multiplied by 100.

Data set [2] in a line: Solubility test (DMSO precipitation method, Pharmacopoeia of Japan elution test second solution). The settings on record: aqueous buffer, kinetic from dmso stock; Pharmacopoeia of Japan elution test second solution pH=6.8, room temperature, five hours; quantitation range 5 to 100 μM. The format is physicochemical. Here is the method:
A calibration curve solution was prepared by diluting a test substance (10 mM DMSO solution) with acetonitrile and adding acetonitrile including an internal standard substance (candesartan) so as to be 0.1, 0.4, and 2 μM.
Sample solution was prepared as follows: 5 μL of the compound of the present invention (10 mM DMSO solution) was added to 495 μL of the Pharmacopoeia of Japan elution test second solution (pH=6.8), and the resulting mixture was stirred at room temperature for five hours. Then, the solution was placed into a solubility filter plate and subjected to suction filtration. The filtrate (20 μL) was diluted with acetonitrile, followed by adding acetonitrile including an internal standard substance ([…]).
The calibration curve and sample solutions in the amount of 5 μL were infused into LC-MS/MS (Discovery Max manufactured by Thermo Scientific) and subjected to quantitation (quantitation range: 5 to 100 μM).

For another data set, the target named is hERG channel (Homo sapiens (Human), UniProt Q12809). Briefly: Evaluation of action on hERG IKr current (patch-clamp). The format is cell-based. The settings on record: HEK293 cell overexpressing hERG, maximum tail current, 10 minutes after application; read-out: IC50 (50% inhibitory activity of hERG channel). Here is the method: Using HEK293 cell overexpressing a human ether-a-go-go-related gene (hERG), the maximum tale current of the hERG IKr current induced by redepolarization pulse subsequent to depolarization pulse was measured by a patch-clamp method.
Sequence of hERG channel (Q12809 whole entry): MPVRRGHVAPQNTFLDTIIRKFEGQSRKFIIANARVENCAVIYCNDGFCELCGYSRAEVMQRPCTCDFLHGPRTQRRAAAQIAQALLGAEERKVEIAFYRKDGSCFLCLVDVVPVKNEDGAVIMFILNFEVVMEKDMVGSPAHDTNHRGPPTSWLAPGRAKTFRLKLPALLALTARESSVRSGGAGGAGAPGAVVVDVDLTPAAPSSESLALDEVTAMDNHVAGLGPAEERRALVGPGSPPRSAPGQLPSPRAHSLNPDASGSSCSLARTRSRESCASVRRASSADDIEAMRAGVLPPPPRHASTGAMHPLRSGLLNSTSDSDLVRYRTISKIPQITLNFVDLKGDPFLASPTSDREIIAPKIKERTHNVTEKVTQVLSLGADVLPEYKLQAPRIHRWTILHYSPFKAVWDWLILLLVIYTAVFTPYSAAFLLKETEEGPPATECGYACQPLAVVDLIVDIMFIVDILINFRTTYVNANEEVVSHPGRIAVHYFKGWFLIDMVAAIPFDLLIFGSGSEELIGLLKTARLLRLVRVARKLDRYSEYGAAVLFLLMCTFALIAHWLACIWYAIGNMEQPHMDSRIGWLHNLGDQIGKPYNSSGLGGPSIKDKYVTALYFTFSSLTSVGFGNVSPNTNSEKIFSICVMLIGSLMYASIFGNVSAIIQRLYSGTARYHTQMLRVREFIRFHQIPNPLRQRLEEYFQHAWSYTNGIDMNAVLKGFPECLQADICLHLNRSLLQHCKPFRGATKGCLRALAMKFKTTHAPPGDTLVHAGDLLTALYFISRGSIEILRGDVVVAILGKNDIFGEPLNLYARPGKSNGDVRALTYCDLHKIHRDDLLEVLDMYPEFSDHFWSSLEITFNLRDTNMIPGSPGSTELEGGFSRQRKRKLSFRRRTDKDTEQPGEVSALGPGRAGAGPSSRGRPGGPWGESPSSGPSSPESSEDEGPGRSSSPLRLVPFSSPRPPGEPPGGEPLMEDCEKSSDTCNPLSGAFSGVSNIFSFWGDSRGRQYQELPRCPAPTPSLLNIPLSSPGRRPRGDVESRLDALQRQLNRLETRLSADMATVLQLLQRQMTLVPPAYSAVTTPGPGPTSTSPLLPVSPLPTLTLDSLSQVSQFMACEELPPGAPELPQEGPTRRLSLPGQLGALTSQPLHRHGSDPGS
For orientation: The hERG channel carries a current that helps repolarise heart muscle cells.

The next data set addresses Human KCNQ2/3 channel (Homo sapiens (Human), UniProt O43525+O43526). The data set can be described thus: Opening action with respect to KCNQ2/3 channel by depolarization stimulation (thallium influx, FLIPR). The class given is cell-based. The note with it: concentration giving 50% of maximum reaction of retigabine (10 μM); human KCNQ2/3 expression CHO-DHFR- cells; 5 mM potassium and 0.5 mM thallium; read-out: KCNQ2/3 ECrtg50. Here is the method: Human KCNQ2/3 expression cells (CHO-DHFR-cells) were seeded in each well of 384 well plate (collagen-coated, black, clear bottom) at 0.5×10^4 cells/50 μL per well, and cultured in a MEM ALPHA medium (containing 10 vol % inactivated (56° C., 30 min) Fetal Bovine Serum and 100 IU/mL Penicillin—100 μg/mL Streptomycin—2 mM L-Glutamine) at 37° C. in 5% CO2 for 18 to 24 hours. The medium in the plate was removed. Then, incubation (room temperature, 60 minutes, light-shielded) was carried out in a loading buffer (prepared by the method described in the manual of FluxOR Thallium Detection Kit (Invitrogen, F10016, F10017)). KCNQ2/3 channel opening action (thallium influx into cells) by the depolarization stimulation (5 mM potassium and 0.5 mM thallium) was measured by FLIPR TETRA (Molecular Devices). The compound of the present invention had been treated five minutes before the depolarization stimulation, and the reaction induced by the depolarization stimulation was measured over time for 180 seconds. The channel opening action of the compound of the present invention was evaluated based on the change amount of the fluorescence intensity from the time before the depolarization stimulation to the time after the passage of 180 seconds. Thus, the concentration (ECrtg50) satisfying 50% of the fluorescence intensity change of maximum reaction (at the time of 10 μM-treatment) of retigabine under this experiment condition was calculated.

The test system of data set [3] is urinary bladder extracted from rat. The data set can be described thus: Relaxing action on urinary bladder extracted from rat (rat Magnus test). The settings on record: concentration at which tension change rate is -20%; carbachol 1 μM-induced contraction of rat urinary bladder strips. On the procedure: Female Jcl Wistar rats (CLEA Japan, Inc., body weight in use: 170 to 200 g) were anesthetized by intraperitoneal administration of about 40 mg/kg of pentobarbital (Somnopentyl, Schering Plough Animal Health Corporation), and killed by bloodletting, followed by abdominal incision to extract the urinary bladder. Immediately, the extracted urinary bladder was immersed in ice-cooled Krebs buffer (Krebs Ringer bicarbonate buffer (Sigma-Aldlich Co.) containing sodium hydrogencarbonate (final concentration: 15 mM) and calcium chloride (final concentration: 2.5 mM)) which had been saturated with a mixed gas (95% O2, 5% CO2).
The urinary bladder bodies were cut in the longitudinal direction to prepare strip specimens (about 10×3 mm) on ice. Immediately, the prepared specimens were suspended in a Magnus tube with 500 mg of tension loaded. The tube was filled with Krebs buffer (37° C.) aerated with a mixed gas. Note here that specimens were prepared within 24 hours after extraction of the tissue.
When one hour or more had passed after the specimen was suspended, 2.5M KCl was added so that the final concentration became 100 mM, specimens showing contraction reaction were used.
Carbachol (a contraction-inducing substance) at the concentration of contraction of 1 μM was used to induce contraction. […] After the contraction reaction was stabilized, a physiological salt solution or the compound of the present invention was added in a cumulative manner from low concentration such that the final concentration became 1, 10, 100 nM, 1 and 10 μM.
The tension (mg) of the extracted urinary bladder was employed as an evaluation parameter. The tension was read by using analysis software WAVE THERMO 1000. Tension after addition of the contraction-inducing substance was set to 0%. The change rate of the tension after addition of the compound of the present invention relative to the tension after addition of the contraction-inducing substance was defined as tension change rate (%). The tension change rate (%) was adopted as an evaluation indicator. The tension change rate (%) is calculated from the following formula. Tension change rate (%)={Tension after addition of compound of the present invention and the like (mg)−Tension before addition of contraction-inducing substance (mg)}/{Tension after addition of contraction-inducing substance (mg)−Tension before addition of contraction-inducing substance (mg)}×100−100
The value at which the tension change rate (%) was −20% was calculated as IC20, and the value was adopted as an indicator of the relaxing action of the extracted urinary bladder.

pEC50, pIC50: −log10 of the molar value. In brackets after ≈: the same amount, converted by molar mass. A value given as a limit tells only on which side of the number the result lay.

One may read the solubility as how much of the substance goes into solution per volume. The low end stands for a poorly soluble substance, the high end for a readily soluble substance. The pIC50 is the negative decadic logarithm of the IC50, by convention in mol/L. As usually defined, the IC20 is the point of the concentration-response curve where the effect stands at 20%. In the case of `C[C@@](O)(c1cc(Cl)c(NC(=O)NCc2ccc(C(F)(F)F)cn2)c(Cl)c1)C(F)(F)F` [Example 22 (1), 1-{2,6-dichloro-4-[(2R)-1,1,1-trifluoro-2-hydroxy-2-propanyl]phenyl}-3-{[5-(trifluoromethyl)-2-pyridinyl]methyl}urea], the Residual rate in data set [1] came out at 100%. In data set [2], the solubility at 5 h came to 77 µM (≈ 36.7 µg/mL). Further, the pIC50 on hERG channel was under 5.00. The pEC50 on Human KCNQ2/3 channel is 7.22. The IC20 in data set [3] stood at 300 nM.
Regarding `C[C@@](O)(c1cc(Cl)c(NC(=O)NCc2ncc(C(F)(F)F)cn2)c(Cl)c1)C(F)(F)F` [Example 22 (2), 1-{2,6-dichloro-4-[(2R)-1,1,1-trifluoro-2-hydroxy-2-propanyl]phenyl}-3-{[5-(trifluoromethyl)-2-pyrimidinyl]methyl}urea], the Residual rate in data set [1] was 100%. In data set [2], this molecule returned a solubility at 5 h of 89 µM (≈ 42.5 µg/mL). The negative-log IC50 (pIC50) on hERG channel is under 5.00. In addition, the pEC50 at Human KCNQ2/3 channel was 6.30. The same molecule displayed an IC20 in data set [3] of 400 nM.
On the same counts, the results for `C[C@@](O)(c1cc(Cl)c(NC(=O)NCc2ccc(C(F)(F)F)nc2)c(Cl)c1)C(F)(F)F` [Example 22 (3), 1-{2,6-dichloro-4-[(2R)-1,1,1-trifluoro-2-hydroxy-2-propanyl]phenyl}-3-{[6-(trifluoromethyl)-3-pyridinyl]methyl}urea] are 98%, 81 µM (≈ 38.6 µg/mL), under 5.00, 6.70 and 300 nM.
In the case of `C[C@](O)(c1cc(Cl)c(NC(=O)NCc2ncc(C(F)(F)F)cn2)c(Cl)c1)C(F)(F)F` [Example 25 (1), 1-{2,6-dichloro-4-[(2S)-1,1,1-trifluoro-2-hydroxy-2-propanyl]phenyl}-3-{[5-(trifluoromethyl)-2-pyrimidinyl]methyl}urea], the Residual rate in data set [1] stood at 78%. In addition, the concentration in solution in data set [2] (solubility at 5 h) was 96 µM (≈ 45.8 µg/mL). For the same molecule, the pIC50 at hERG channel was under 5.00. In addition, the pEC50 on Human KCNQ2/3 channel is 5.85. Further, in data set [3], the 20% effect concentration (IC20) turned out to be 600 nM.
Consider `C[C@](O)(c1cc(Cl)c(NC(=O)NCc2ccc(C(F)(F)F)nc2)c(Cl)c1)C(F)(F)F` [Example 25 (2), 1-{2,6-dichloro-4-[(2S)-1,1,1-trifluoro-2-hydroxy-2-propanyl]phenyl}-3-{[6-(trifluoromethyl)-3-pyridinyl]methyl}urea], for which the Residual rate in data set [1] was determined as 80%. This molecule also registered a solubility at 5 h in data set [2] of 86 µM (≈ 41 µg/mL). The pIC50 at hERG channel was under 5.00. For the same molecule, the pEC50 at Human KCNQ2/3 channel is 6.52. The molecule further registered an IC20 in data set [3] of 200 nM.
`C[C@](O)(c1cc(Cl)c(NC(=O)NCc2ccc(Cl)cn2)c(Cl)c1)C(F)(F)F` [Example 25 (5), 1-[(5-chloro-2-pyridinyl)methyl]-3-{2,6-dichloro-4-[(2S)-1,1,1-trifluoro-2-hydroxy-2-propanyl]phenyl}urea] yielded a Residual rate in data set [1] of 87%. Also, in data set [2], the solubility at 5 h was determined as 98 µM (≈ 43.4 µg/mL). Also, on hERG channel, the negative-log IC50 (pIC50) is under 5.00. The concentration for an effect of 20% (IC20) in data set [3] came to 500 nM.
`O=C(NCc1cnc(C(F)(F)F)nc1)Nc1c(Cl)cc([C@@H](O)C(F)(F)F)cc1Cl` [Example 32 (3), 1-{2,6-dichloro-4-[(1R)-2,2,2-trifluoro-1-hydroxyethyl]phenyl}-3-{[2-(trifluoromethyl)-5-pyrimidinyl]methyl}urea] showed a Residual rate in data set [1] of 100%. The molecule further had a solubility at 5 h in data set [2] of 100 µM (≈ 46.3 µg/mL). Besides, the negative logarithm of the IC50 (pIC50) at hERG channel was under 5.00. Besides, at Human KCNQ2/3 channel, the pEC50 is 6.30. In data set [3], it took 100 nM to reach the 20% level (IC20).
For `O=C(NCc1ncc(C(F)(F)F)cn1)Nc1c(Cl)cc([C@@H](O)C(F)(F)F)cc1Cl` [Example 32 (4), 1-{2,6-dichloro-4-[(1R)-2,2,2-trifluoro-1-hydroxyethyl]phenyl}-3-{[5-(trifluoromethyl)-2-pyrimidinyl]methyl}urea] the same measures were 100%, 77 µM (≈ 35.7 µg/mL), under 5.00, 6.70 and 200 nM.
Consider `O=C(NCc1cnc(C(F)(F)F)s1)Nc1c(Cl)cc([C@@H](O)C(F)(F)F)cc1Cl` [Example 33, 1-{2,6-dichloro-4-[(1R)-2,2,2-trifluoro-1-hydroxyethyl]phenyl}-3-{[2-(trifluoromethyl)-1,3-thiazole-5-yl]methyl}urea], for which the Residual rate in data set [1] was found to be 100%. In addition, the concentration in solution in data set [2] (solubility at 5 h) came to 91 µM (≈ 42.6 µg/mL). Also, the pIC50 on hERG channel was under 5.00. The pEC50 on Human KCNQ2/3 channel is 7.40. In addition, the 20% effect concentration (IC20) in data set [3] is 30 nM.
In data set [1], `CC(O)(c1cc(Cl)c(NC(=O)Cc2ccc(F)cc2)c(Cl)c1)C(F)(F)F` (stereo not shown) [Example 50 (1), N-[2,6-dichloro-4-(1,1,1-trifluoro-2-hydroxy-2-propanyl)phenyl]-2-(4-fluorophenyl)acetamide] had a Residual rate of 96%. In data set [2], this molecule yielded a solubility at 5 h of 82 µM (≈ 33.6 µg/mL). The pIC50 on hERG channel was under 5.00. Moreover, the pEC50 on Human KCNQ2/3 channel is 7.22.
On the same counts, the results for `NC(c1cc(Cl)c(NC(=O)NCc2ccc(C(F)(F)F)cn2)c(Cl)c1)C(F)(F)F` (stereo not shown) [Example 79 (1), 1-[4-(1-amino-2,2,2-trifluoroethyl)-2,6-dichlorophenyl]-3-{[5-(trifluoromethyl)-2-pyridinyl]methyl}urea] are 82%, 87 µM (≈ 40.1 µg/mL), under 5.00 and 5.80.
